# Data taken from US20080090805A1, “CB-1 MODULATING COMPOUNDS AND THEIR USE” (ACADIA PHARMACEUTICALS INC., priority 2005, published 2008).
# Columns and labels:
# C57 BK/6 mice = assay: Novel object recognition study; assay type: in vivo; details: test 1 or 2 hours after dosing, CP 55,940 0.3 mg/kg ip, SR141716A 1 mg/kg ip, Compound II 3 mg/kg ip, FIGS. 10, 11
# Description: Subjects: Subjects were male, C57 BK/6 mice purchased from Harlan Laboratories, weighing 15-20 g upon arrival. Animals were housed 8 per cage with food and water available ad libidum. Animals were housed on a 12 hr light cycle (lights on 6 am) for 4-7 days prior to behavioral testing.
# Equipment: Novel object recognition (NOR) was conducted in a novel environment consisting of a white plastic tub measuring 45.7×33.7×19 cm. Prior to each trial the bottom of the tub was covered with a piece of plastic lined bench top paper. There were two sets of identical objects chosen so that when given a opportunity to explore, mice would evenly divide exploration time between the objects. “A” objects were yellow, ceramic, 12-sided ramekins measuring 4 cm high×7 cm diameter. “B” objects were 8×8×4 cm stainless steel, 4-sided ramekins.
# Procedure: At the beginning of each test day, animals were placed in groups of 6 into clean cages. Testing was conducted in three phases: acclimation, sample and test. […] Each mouse was allowed to explore the chamber and the objects for 3 min., and the time spent exploring at each position was recorded. Directly sniffing or touching the object was recorded as exploration. […] The test sessions were recorded on video and scored by an observer blind to each subject's treatment condition. Any time spent directly sniffing or touching an object was counted as exploration. […]
# obese Zucker rats = assay: Chronic feeding study; assay type: in vivo; details: 1, 3, 10 mg/kg/day, dose-dependent, FIGS. 9A-9D
# Description: Male, obese Zucker rats (400-500 g) served as subjects for these studies. Rats were housed individually and had access to food and water ad libitum. Rats were allowed to acclimate to the vivarium for a period of 3 days, during which body weight and consumption of food and water was monitored. […] Daily food and water intakes were also monitored. Food and water bottles were weighed at the time body weights were recorded (i.e., 1350 hr). Vehicle or compound was administered daily for a period of up to 15 days.
# [1] = test system: rats with unilateral 6-OH dopamine lesions; assay: Rotation study (unilateral 6-hydroxy-dopamine lesion); assay type: in vivo; details: 6-OH dopamine lesioned rats; apomorphine 0.05, 0.16, 0.5 mg/kg ip; Compound II 3 mg/kg; FIGS. 14-16
# in vitro [2] = details: rat, microsomes, pH 7.4
# [3] = microsomes
# in vitro [4] = details: mouse, microsomes, pH 7.4
# NSA mice [5] = assay: Tail flick study (block of CP 55,940 antinociception); details: test compound ip 30 min prior to CP55,940, FIGS. 5A, 5B
# NSA mice [6] = assay: Hypothermia study (block of CP 55,940-induced hypothermia); assay type: in vivo; details: pretreatment 30 min prior to CP55,940, dose-dependent, FIG. 6
# Description: . […] Core body temperatures were then obtained at various time points following CP 55,940 administration. Core body temperature (to the nearest 0.1° C.) was obtained by rectal probe.
# [7] = test system: fasted Sprague-Dawley rats; assay: Acute feeding study; assay type: in vivo; details: 1, 3, 10 mg/kg, dose-dependent, FIGS. 2-4
# Description: Male, Sprague-Dawley rats (90-120 g) served as subjects for these studies. Rats were fasted for a period of 16 hrs (water was always available). After the fasting period, test compounds were administered either intraperitoneally (ip) or orally (po). Immediately following compound administration, the rats were returned to their home cage. Following 30 min after compound administration, the rats were removed from their home cages and placed individually into clean cages with a pre-measured amount of food. Food weights were obtained (to the nearest 0.1 g) at various time points. Food consumption was monitored for a period of up to 2 hrs (i.e., 2.5 hr after test compound administration).
structure (smiles),measurement,setting,value
"CCCCNC(=O)c1ccc2c(c1)N=C(c1ccc(Cl)cc1)c1ccccc1S2 [Compound II, N-(butyl)-11-(4-chlorophenyl)-dibenzo[b,f,][1,4]thiazepine-8-carboxamide]","preference for the novel object (exploration ratio, discrimination index)",C57 BK/6 mice,showed a preference for the novel object
same,food and water intake,obese Zucker rats,attenuated the food and water intake of the rats
same,contralateral rotations,[1],augments dopaminergic functions
CCCCNC(=O)c1ccc2c(c1)N=C(c1ccc(Cl)cc1)c1ccc(Cl)cc1S2 [drawing 1732],microsomal CLint at 1 μM,in vitro [2],24 µL/min/mg
same,Clearance Human,[3],0
same,microsomal CLint at 1 μM,in vitro [4],29 µL/min/mg
"O=C(NN1CCCCC1)c1ccc2c(c1)N=C(C1CCCCC1)c1ccccc1S2 [Compound I, 11-Cyclohexyl-dibenzo[b,f][1,4]thiazepine-8-carboxylic acid piperidin-1-ylamide]","effect on antinociceptive actions of CP55,940 (tail flick latency)",NSA mice [5],"attenuates the antinociceptive actions of CP55,940"
same,"effect on CP 55,940-induced hypothermia (core body temperature)",NSA mice [6],"attenuates CP 55,940-induced hypothermia"
same,cumulative food intake,[7],suppresses the cumulative food intake in fasted rats
"CN1CCc2cccc3c2[C@H]1Cc1ccc(O)c(O)c1-3 [apomorphine, reference compound]",contralateral rotations,[1],dose-dependently elicits contralateral rotations
"CCCCCCC(C)(C)c1ccc([C@@H]2C[C@H](O)CC[C@H]2CCCO)c(O)c1 [CP 55,940, reference compound]","preference for the novel object (exploration ratio, discrimination index)",C57 BK/6 mice,showed a preference for the novel object after 1 hour of being dosed with the test compound but then returned back to baseline exploration rates after 2 hours
